These are literature values, as cited in patent US20230210865A1, “MIDAZOLAM PREMIX FORMULATIONS AND USES THEREOF” (Baxter International, Inc., priority 2021, published 2023).

Counter-ions that a name gives are not always drawn.

In the case of `Cc1ncc2n1-c1ccc(Cl)cc1C(c1ccccc1F)=NC2` [Midazolam HCl, 8-chloro-6-(2-fluorophenyl)-1-methyl-4H-imidazo[1,5-a][1,4]benzodiazepine hydrochloride], the “Onset time of sedative effects” value (after intramuscular administration in adults) is “about fifteen”. The “Potency relative to diazepam” value (sedative agent, administered by injection) was “about twice”.
